How the values were obtained:
Type in all cases: biochemical
KDM5C (JARID1C) = molecular target: T1, KDM5C (JARID1C) (Homo sapiens, UniProt P41229); test: Histone lysine demethylase AlphaLISA assay, KDM5C; conditions: read-out: KDM5C HDME Inhibition IC50
T1 construct: 2-1560; purchased BPS; host or cells: Bac (baculovirus system)
Procedure: (§1) Assays are performed analogously to the protocol described by PerkinElmer (Roy et al. PerkinElmer Technical Note: AlphaLISA #12, April 2011)
(§2) Enzymes are dissolved in enzyme buffer and incubated for 10 min before being added to 3% DMSO solutions of compounds in enzyme buffer. Incubated for another 10 minutes, before substrate solution is added and the reaction mixture is incubated at room temperature. 10 μL acceptor beads, suspended in Epigenetic Buffer (Perkin Elmer AL008) from stock, are added and the suspension is incubated in the dark at room temperature, before a suspension of streptavidin donor beads (Perkin Elmer 6760002) in Epigenetic Buffer is added. After incubation at room temperature in the dark the plates are read. […]
H3K4M3B: H-ART(Kme3)QTARKSTGGKAPRKQLA-NH-Biotin (Caslo, Denmark) […]
(§3) Substrate Solution: Substrate, 25 μM L-Asc, and 10 μM α-KG in Buffer A.

KDM3A (JMJD1A) = molecular target: T2, KDM3A (JMJD1A) (Homo sapiens, UniProt Q9Y4C1); test: Histone lysine demethylase AlphaLISA assay, KDM3A; conditions: read-out: KDM3 A HDME Inhibition IC50
T2 construct: 2-end; purchased BPS Bioscience, US; host or cells: Bac (baculovirus system)
T2 sequence (Q9Y4C1 2-1321 limits assumed): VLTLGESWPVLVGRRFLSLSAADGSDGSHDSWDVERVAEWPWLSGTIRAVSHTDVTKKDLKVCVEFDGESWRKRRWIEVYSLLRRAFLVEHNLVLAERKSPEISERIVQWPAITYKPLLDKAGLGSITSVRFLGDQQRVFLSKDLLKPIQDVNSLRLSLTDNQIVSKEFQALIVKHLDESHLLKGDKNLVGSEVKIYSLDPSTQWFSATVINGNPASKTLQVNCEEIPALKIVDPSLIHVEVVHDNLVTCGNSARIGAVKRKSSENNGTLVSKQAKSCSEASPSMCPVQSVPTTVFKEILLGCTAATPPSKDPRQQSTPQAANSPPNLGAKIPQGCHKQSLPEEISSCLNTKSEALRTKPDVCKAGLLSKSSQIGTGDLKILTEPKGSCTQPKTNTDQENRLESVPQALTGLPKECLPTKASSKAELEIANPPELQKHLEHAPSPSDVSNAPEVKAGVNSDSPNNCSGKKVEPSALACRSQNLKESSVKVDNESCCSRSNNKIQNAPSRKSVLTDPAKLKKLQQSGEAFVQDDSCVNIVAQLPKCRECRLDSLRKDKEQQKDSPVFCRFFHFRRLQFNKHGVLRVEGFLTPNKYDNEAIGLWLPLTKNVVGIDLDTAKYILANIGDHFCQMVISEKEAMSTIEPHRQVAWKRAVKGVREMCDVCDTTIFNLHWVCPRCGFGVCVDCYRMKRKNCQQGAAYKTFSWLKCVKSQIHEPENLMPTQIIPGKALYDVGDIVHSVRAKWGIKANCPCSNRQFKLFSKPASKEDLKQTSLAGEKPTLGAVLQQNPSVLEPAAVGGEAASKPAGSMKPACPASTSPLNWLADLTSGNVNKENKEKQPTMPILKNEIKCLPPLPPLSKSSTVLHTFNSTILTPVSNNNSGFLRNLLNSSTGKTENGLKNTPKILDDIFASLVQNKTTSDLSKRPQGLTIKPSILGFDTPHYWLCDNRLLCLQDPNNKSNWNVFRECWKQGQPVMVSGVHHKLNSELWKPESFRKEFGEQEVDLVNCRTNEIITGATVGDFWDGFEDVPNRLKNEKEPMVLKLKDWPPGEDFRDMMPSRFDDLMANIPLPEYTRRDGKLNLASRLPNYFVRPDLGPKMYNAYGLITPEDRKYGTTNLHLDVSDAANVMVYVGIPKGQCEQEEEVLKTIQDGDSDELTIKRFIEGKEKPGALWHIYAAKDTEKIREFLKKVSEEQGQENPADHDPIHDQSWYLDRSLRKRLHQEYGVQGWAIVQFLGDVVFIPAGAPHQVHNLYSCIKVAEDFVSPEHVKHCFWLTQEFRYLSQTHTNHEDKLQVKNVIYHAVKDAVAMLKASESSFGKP
Procedure: as §1, §2
(§4) BK9M2: Biotin-ARTKQTAR(KMe2)STGGKAPRKQ-NH2 (AnaSpec 64359) […]
as §3

KDM3B (JMJD1B) = molecular target: T3, KDM3B (JMJD1B) (Homo sapiens, UniProt Q7LBC6); test: Histone lysine demethylase AlphaLISA assay, KDM3B; conditions: read-out: KDM3B HDME Inhibition IC50
T3 construct: 842-1761; host or cells: Bac (baculovirus system)
T3 sequence (Q7LBC6 842-1761): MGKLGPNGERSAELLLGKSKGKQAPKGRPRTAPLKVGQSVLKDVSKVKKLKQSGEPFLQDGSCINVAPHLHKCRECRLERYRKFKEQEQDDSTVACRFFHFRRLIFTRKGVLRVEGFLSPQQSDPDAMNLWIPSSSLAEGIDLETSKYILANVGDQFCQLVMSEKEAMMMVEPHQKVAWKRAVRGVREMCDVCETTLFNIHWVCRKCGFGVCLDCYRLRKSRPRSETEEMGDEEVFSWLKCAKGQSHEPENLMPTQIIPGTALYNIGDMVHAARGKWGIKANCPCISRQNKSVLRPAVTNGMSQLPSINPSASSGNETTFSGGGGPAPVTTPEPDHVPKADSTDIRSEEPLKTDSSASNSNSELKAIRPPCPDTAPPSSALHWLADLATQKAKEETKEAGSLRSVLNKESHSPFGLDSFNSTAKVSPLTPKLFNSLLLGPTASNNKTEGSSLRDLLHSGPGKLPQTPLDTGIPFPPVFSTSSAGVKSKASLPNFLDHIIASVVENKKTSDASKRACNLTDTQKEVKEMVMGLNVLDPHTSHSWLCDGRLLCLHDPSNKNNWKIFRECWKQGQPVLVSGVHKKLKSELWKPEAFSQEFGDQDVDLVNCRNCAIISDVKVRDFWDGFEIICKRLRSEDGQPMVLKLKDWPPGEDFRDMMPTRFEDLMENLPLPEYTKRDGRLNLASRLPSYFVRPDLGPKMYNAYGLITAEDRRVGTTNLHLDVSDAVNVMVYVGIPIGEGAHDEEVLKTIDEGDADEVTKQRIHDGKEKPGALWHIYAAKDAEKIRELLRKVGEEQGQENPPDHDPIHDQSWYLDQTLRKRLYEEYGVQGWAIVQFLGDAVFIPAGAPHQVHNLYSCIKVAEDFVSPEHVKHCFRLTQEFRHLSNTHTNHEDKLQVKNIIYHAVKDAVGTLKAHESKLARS
Procedure: as §1, §2, §4, §3

T1 sequence (P41229 2-1560): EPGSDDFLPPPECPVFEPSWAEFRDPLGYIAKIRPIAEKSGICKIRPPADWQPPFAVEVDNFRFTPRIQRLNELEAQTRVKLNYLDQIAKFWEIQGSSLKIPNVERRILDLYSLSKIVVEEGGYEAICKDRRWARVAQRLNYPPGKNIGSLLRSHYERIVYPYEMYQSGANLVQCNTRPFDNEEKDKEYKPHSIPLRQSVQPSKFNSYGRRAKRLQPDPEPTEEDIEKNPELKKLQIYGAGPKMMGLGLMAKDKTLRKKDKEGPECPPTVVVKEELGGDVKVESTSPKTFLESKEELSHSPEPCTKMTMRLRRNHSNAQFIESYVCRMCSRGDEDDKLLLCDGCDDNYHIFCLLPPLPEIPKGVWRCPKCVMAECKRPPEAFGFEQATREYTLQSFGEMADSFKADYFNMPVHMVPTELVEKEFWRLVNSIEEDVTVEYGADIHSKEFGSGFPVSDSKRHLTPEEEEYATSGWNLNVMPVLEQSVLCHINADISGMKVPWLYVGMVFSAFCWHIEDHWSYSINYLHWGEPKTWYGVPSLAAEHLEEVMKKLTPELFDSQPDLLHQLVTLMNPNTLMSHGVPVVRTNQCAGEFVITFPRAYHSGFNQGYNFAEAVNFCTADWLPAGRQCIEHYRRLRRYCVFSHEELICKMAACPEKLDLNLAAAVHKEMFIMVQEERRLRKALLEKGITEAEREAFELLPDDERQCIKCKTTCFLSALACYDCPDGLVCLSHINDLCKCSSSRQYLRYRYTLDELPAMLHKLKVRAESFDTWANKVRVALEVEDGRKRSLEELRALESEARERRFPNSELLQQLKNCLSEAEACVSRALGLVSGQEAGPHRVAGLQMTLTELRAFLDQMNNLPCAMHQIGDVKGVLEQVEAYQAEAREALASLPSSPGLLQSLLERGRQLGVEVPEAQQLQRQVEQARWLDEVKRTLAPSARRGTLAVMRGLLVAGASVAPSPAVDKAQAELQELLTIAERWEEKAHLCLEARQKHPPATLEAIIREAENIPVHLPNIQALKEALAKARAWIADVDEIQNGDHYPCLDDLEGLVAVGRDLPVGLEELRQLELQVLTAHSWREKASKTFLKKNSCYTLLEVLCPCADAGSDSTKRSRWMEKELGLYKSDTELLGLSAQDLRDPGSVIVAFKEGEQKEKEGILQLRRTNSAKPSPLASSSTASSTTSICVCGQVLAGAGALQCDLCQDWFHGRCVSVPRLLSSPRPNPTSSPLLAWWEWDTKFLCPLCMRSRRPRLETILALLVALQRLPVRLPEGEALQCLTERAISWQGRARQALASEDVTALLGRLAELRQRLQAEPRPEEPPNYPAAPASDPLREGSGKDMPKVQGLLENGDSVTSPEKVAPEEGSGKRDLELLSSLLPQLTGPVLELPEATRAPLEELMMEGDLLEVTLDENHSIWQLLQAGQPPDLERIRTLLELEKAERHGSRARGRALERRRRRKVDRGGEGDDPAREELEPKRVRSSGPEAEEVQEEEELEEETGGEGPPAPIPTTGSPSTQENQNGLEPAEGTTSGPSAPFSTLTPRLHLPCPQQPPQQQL

| SMILES | IC50 (KDM5C (JARID1C)) [µM] | IC50 (KDM3A (JMJD1A)) [µM] | IC50 (KDM3B (JMJD1B)) [µM] |
| --- | --- | --- | --- |
| CC(C#N)NCc1ccnc(CNCCCN(C)C)c1 (stereo not drawn) [Compound 22, 2-({[2-({[3-(dimethylamino)propyl]-amino}methyl)pyridin-4-yl]methyl}amino)-propanenitrile] | < 0.25 | > 2.5 | > 2.5 |
| N#CCNCc1ccnc(CNCCCCN(Cc2ccccc2)C2CC2)c1 [Compound 23, 2-[({2-[({4-[benzyl(cyclopropyl)-amino]butyl}amino)-methyl]pyridin-4-yl}methyl)amino]-acetonitrile] | < 0.25 | > 2.5 | > 2.5 |
| CNC(C#N)c1ccnc(CNCCCN(C)C)c1 (stereo not drawn) [Compound 24, 2-[2-({[3-(dimethylamino)propyl]-amino}methyl)pyridin-4-yl]-2-(methylamino)-acetonitrile] | < 0.25 | > 2.5 | > 2.5 |
| CCN(CCN(C)C)C(=O)CNCc1cc(CNC(=O)C(F)(F)F)ccn1 [Compound 25, N-[(2-{[({[2-(dimethylamino)ethyl]-(ethyl)carbamoyl}-methyl)amino]methyl}-pyrtdin-4-yl)methyl]-2,2,2-trifluoroacetamide] | 0.25 to 2.5 | > 2.5 | > 2.5 |
| CN(C)C(=O)CNCc1cc(/C=N/CCCc2ccccc2)ccn1 [Compound 34, N,N-dimethyl-2-[({4-[[(3-phenylpropyl)imino]-methyl]pyridin-2-yl}methyl)amino]-acetamide] | < 0.25 | > 2.5 | > 2.5 |
| CC1CC1/N=C/c1ccnc(CNCC(=O)N(C)C)c1 (stereo not drawn) [Compound 35, N,N-dimethyl-2-[({4-[N-(2-methylcyclopropyl)-carboximidoyl]pyridin-2-yl}methyl)amino]-acetamide] | < 0.25 | > 2.5 | > 2.5 |
| CN(C)C(=O)CNCc1cc(/C=N/CCC2CCCCC2)ccn1 [Compound 36, 2-[({4-[[(2-cyclohexylethyl)imino]-methyl]pyridin-2-yl}methyl)amino]-N,N-dimethylacetamide] | < 0.25 | > 2.5 | > 2.5 |
| CN(C)CCC/N=C/c1ccnc(CNCCCN(C)C)c1 [Compound 37, [3-(dimethylamino)propyl]-({4-[{[3-(dimethylamino)propyl]-imino}methyl]pyridin-2-yl}methyl)amine] | < 0.25 | > 2.5 | > 2.5 |
| CN(C)CCCNCc1cc(/C=N/CCN(C)C)ccn1 [Compound 38, ({4-[{[2-(dimethylamino)ethyl]-imino}methyl]pyridin-2-yl}methyl)[3-(dimethylamino)-propyl]amine] | < 0.25 | > 2.5 | > 2.5 |
| CCSCCNCc1cc(/C=N/C2CC2)ccn1 [Compound 39, N-{[2-({[2-(ethylsulfanyl)-ethyl]amino}methyl)pyridin-4-yl]methylidene}-cyclopropanamine] | < 0.25 | > 2.5 | > 2.5 |
| CN1CCCC1CCNCc1cc(/C=N/C2CC2)ccn1 (stereo not drawn) [Compound 40, N-{[2-({[2-(l-methylpyrrolidin-2-yl)ethyl]amino}methyl)-pyridin-4-yl]methylidene}-cyclopropanamine] | < 0.25 | > 2.5 | > 2.5 |
| C(=N/C1CC1)/c1ccnc(CNCCCN2CCCC2)c1 [Compound 42, N-{[2-({[3-(pyrrolidin-1-yl)propyl]amino}-methyl)pyridin-4-yl]methylidene}-cyclopropanamine] | < 0.25 | > 2.5 | > 2.5 |
| CN(C)C/C=C/CNCc1cc(/C=N/C2CC2)ccn1 [Compound 43, N-{[2-({[(2E)-4-(dimethylamino)but-2-en-1-yl]amino}-methyl)pyridin-4-yl]methylidene}-cyclopropanamine] | < 0.25 | > 2.5 | > 2.5 |
| C(=N\C1CC1)/c1ccnc(CNCCCCN2CCC2)c1 [Compound 44, N-{[2-({[4-(azetidin-1-yl)butyl]amino}methyl)-pyridin-4-yl]methylidene}-cyclopropanamine] | < 0.25 | > 2.5 | > 2.5 |
| CN(C)CCCCNCc1cc(/C=N\C2CC2)ccn1 [Compound 45, N-{[2-({[4-(dimethylamino)butyl]-amino}methyl)-pyridin-4-yl]methylidene}-cyclopropanamine] | < 0.25 | > 2.5 | > 2.5 |
| CN(C)CC1CCC(CNCc2cc(/C=N/C3CC3)ccn2)CC1 (stereo not drawn) [Compound 46, N-[(2-{[({4-[(dimethylamino)-methyl]cyclohexyl}-methyl)amino]-methyl}pyridin-4-yl)methylidene]-cyclopropanamine] | < 0.25 | > 2.5 | > 2.5 |
| CN(C)CCCCCNCc1cc(/C=N/C2CC2)ccn1 [Compound 47, N-{[2-({[5-(dimethylamino)-pentyl]amino}-methyl)pyridin-4-yl]methylidene}-cyclopropanamine] | < 0.25 | > 2.5 | > 2.5 |
| CCN(CC)CCCCNC(=O)CNCc1cc(/C=N/C2CC2)ccn1 [Compound 48, 2-[({4-[N-cyclopropyl-carboximidoyl]pyridin-2-yl}methyl)amino]-N-[4-(diethylamino)-butyl]acetamide] | < 0.25 | > 2.5 | > 2.5 |
| O=C(CNCc1cc(/C=N/C2CC2)ccn1)N1CCC[C@@H]1CN1CCCC1 [Compound 49, 2-[({4-[N-cyclopropyl-carboximidoyl]pyridin-2-yl}methyl)amino]-1-[(2R)-2-(pyrrolidin-1-ylmethyl)pyrrolidin-1-yl]ethan-1-one] | < 0.25 | > 2.5 | > 2.5 |

Source: patent publication US9650339B2, “Inhibitors of histone demethylases” (Gilead Sciences, Inc., priority 2013, dated 2017)
